Measurements: US8461182B2, “7-piperidinoalkyl-3, 4-Dihydroquinolone derivative” (Taisho Pharmaceutical Co., Ltd., priority 2008, dated 2013)
Where a name gives a salt, the structure may show the parent alone.

Biological target: T1, MCH1R (Homo sapiens, UniProt Q99705)
T1 construct: IC50; other: cells stably expressing non-endogenous active MCH1R; 50 nM MCH; Fluo-4 calcium, FDSS6000
Assay: Calcium Evaluation Test for MCH1R (FDSS assay, MCH-induced intracellular calcium increase)
Type: cell-based
Conditions: cells stably expressing non-endogenous active MCH1R; 50 nM MCH; Fluo-4 calcium, FDSS6000
Text: Calcium Evaluation Test for MCH1R
An FDSS assay can measure the intracellular calcium concentration and can evaluate the Gq-coupled receptor activity using the calcium concentration as an index. For example, the assay can determine whether an analyte is an antagonist, an inverse agonist or an agonist for a Gq-coupled receptor. The FDSS6000™ system (Hamamatsu Photonics K.K.) is designed to perform evaluation based on functionality such as measurement of intracellular calcium for high-throughput screening. Intracellular calcium release by activation of a Gq-coupled receptor can be fluorometrically measured by incorporating a calcium indicator (such as Fluo4) into cells. On the other hand, the assay cannot measure the activation of Gi- and Go-coupled receptors, because the activation is not associated with calcium signaling pathways.
Intracellular fluorescence can be rapidly and successively measured in a 96-well microplate or a 384-well microplate using a fluorometric imaging plate reader system. FDSS6000™ can simultaneously measure fluorescence in all wells sensitively, accurately and by seconds. This system is ideal for functional analysis in cells such as monitoring of an intracellular calcium flow generated within several seconds after activation of a Gq-coupled receptor.
On the day before the test, cells stably expressing non-endogenous active MCH1R were seeded into a 96-well microplate at 3×10^4 cells per well. 100 μL per well of a medium (Dulbecco's modified Eagle medium containing 10% fetal bovine serum, 2 mM glutamine, 1 mM sodium pyruvate and 0.5 mg/mL G418, pH=7.4) was used for culture. On the day of the test, the medium was removed and an assay buffer {Hank's balanced salt solution containing 20 mM HEPES, 0.5 mM probenecid, 0.05 mg/mL amaranth and 0.2% bovine serum albumin (BSA), pH=7.4} containing 2 μM Fluo-4-AM and 0.04% Pluronic F127 was added at 100 μL per well, followed by incubation in a 5% CO2 incubator at 37° C. for 30 minutes. An assay buffer containing each concentration of MCH was added at 50 μL per well, and transient changes in the intracellular calcium concentration induced by MCH were monitored using FDSS6000™ at Ex. 488 nm and Em. 530 nm for 180 seconds. In testing the antagonistic activity of the analyte, MCH was added to a final concentration of 50 nM. An inhibition curve was prepared with various concentrations of the analyte, and the concentration of the analyte inhibiting 50% of the increase in intracellular calcium when 50 nM MCH was added (IC50 value) was calculated using data analysis software Origin Ver. 6.

Row | SMILES | IC50
1 | COc1cccc(C(=O)NC2CCN(Cc3ccc4c(c3)NC(=O)CC4)CC2)c1 [Example 2, 3-methoxy-N-{1-[(2-oxo-1,2,3,4-tetrahydroquinolin-7-yl)methyl]piperidin-4-yl}benzamide monohydrochloride, monohydrate] | 6.22 nM
2 | O=C1CCc2ccc(CN3CCC(NC(=O)c4cccc(F)c4)CC3)cc2N1 [Example 3, 3-fluoro-N-{1-[(2-oxo-1,2,3,4-tetrahydroquinolin-7-yl)methyl]piperidin-4-yl}benzamide] | 10.9 nM
3 | O=C1CCc2ccc(CN3CCC(NC(=O)c4ccc(F)c(F)c4)CC3)cc2N1 [Example 5, 3,4-difluoro-N-{1-[(2-oxo-1,2,3,4-tetrahydroquinolin-7-yl)methyl]piperidin-4-yl}benzamide] | 1.5 nM
4 | O=C1CCc2ccc(CN3CCC(NC(=O)c4cccc(Cl)c4)CC3)cc2N1 [Example 7, 3-chloro-N-{1-[(2-oxo-1,2,3,4-tetrahydroquinolin-7-yl)methyl]piperidin-4-yl}benzamide] | 9.08 nM
5 | Cc1cccc(C(=O)NC2CCN(Cc3ccc4c(c3)NC(=O)CC4)CC2)c1 [Example 8, 3-methyl-N-{1-[(2-oxo-1,2,3,4-tetrahydroquinolin-7-yl)methyl]piperidin-4-yl}benzamide] | 19.2 nM
6 | COc1cc(OC)cc(C(=O)NC2CCN(Cc3ccc4c(c3)NC(=O)CC4)CC2)c1 [Example 19, 3,5-dimethoxy-N-{1-[(2-oxo-1,2,3,4-tetrahydroquinolin-7-yl)methyl]piperidin-4-yl}benzamide] | 3.85 nM
7 | O=C1CCc2ccc(CN3CCC(NC(=O)C(c4ccccc4)c4ccccc4)CC3)cc2N1 [Example 27, N-{1-[(2-oxo-1,2,3,4-tetrahydroquinolin-7-yl)methyl]piperidin-4-yl}-2,2-diphenylacetamide] | 19.7 nM
8 | CC(=O)c1cccc(C(=O)NC2CCN(Cc3ccc4c(c3)NC(=O)CC4)CC2)c1 [Example 32, 3-acetyl-N-{1-[(2-oxo-1,2,3,4-tetrahydroquinolin-7-yl)methyl]piperidin-4-yl}benzamide] | 10.7 nM
9 | O=C1CCc2ccc(CN3CCC(NC(=O)c4cc(F)c(F)c(F)c4)CC3)cc2N1 [Example 33, 3,4,5-trifluoro-N-{1-[(2-oxo-1,2,3,4-tetrahydroquinolin-7-yl)methyl]piperidin-4-yl}benzamide] | 1.96 nM
10 | N#Cc1cccc(C(=O)NC2CCN(Cc3ccc4c(c3)NC(=O)CC4)CC2)c1 [Example 37, 3-cyano-N-{1-[(2-oxo-1,2,3,4-tetrahydroquinolin-7-yl)methyl]piperidin-4-yl}benzamide] | 18.3 nM
11 | O=C1CCc2ccc(CN3CCC(NC(=O)c4cncc(Cl)c4)CC3)cc2N1 [Example 38, 5-chloro-N-{1-[(2-oxo-1,2,3,4-tetrahydroquinolin-7-yl)methyl]piperidin-4-yl}pyridine-3-carboxamide] | 18.8 nM
12 | O=C1CCc2ccc(CN3CCC(NC(=O)COc4ccc(F)c(Cl)c4)CC3)cc2N1 [Example 46, 2-(3-chloro-4-fluorophenoxy)-N-{1-[(2-oxo-1,2,3,4-tetrahydroquinolin-7-yl)methyl]piperidin-4-yl}acetamide] | 4.34 nM
13 | CC(c1ccc2c(c1)NC(=O)CC2)N1CCC(NC(=O)c2ccc(F)c(Cl)c2)CC1 (stereo not drawn) [Example 51, 3-chloro-4-fluoro-N-{1-[1-(2-oxo-1,2,3,4-tetrahydroquinolin-7-yl)ethyl]piperidin-4-yl}benzamide] | 1.07 nM
14 | COc1cccc(C(=O)NC2CCN(Cc3cc4c(cc3F)CCC(=O)N4)CC2)c1 [Example 53, N-{1-[(6-fluoro-2-oxo-1,2,3,4-tetrahydroquinolin-7-yl)methyl]piperidin-4-yl}-3-methoxybenzamide] | 39.3 nM

Test system: MCH1R
Assay: not given
Conditions: NON-PATENT DOCUMENT 2; cited from earlier work

Row | SMILES | effects in experimental animal models
15 | CN(C)c1nc(N[C@H]2CC[C@@H](NC(=O)c3ccc(F)c(F)c3)CC2)nc2ccccc12 [ATC0175] | antidepressive-like and anxiolytic-like effects
